Data from paper PMC6491728, “Application of in vitro Drug Metabolism Studies in Chemical Structure Optimization for the Treatment of Fibrodysplasia Ossificans Progressiva (FOP)” (Frontiers in Pharmacology, 2019).
Converted amounts (≈) assume the structure as drawn. Where two headings read alike, the source gives them in different places.

Assays:
[1] = In vitro metabolic stability screening assay with rat liver microsomes; assay type: in vitro ADME; details: rat liver microsomes 0.5 mg/mL, 1 μM compound, single time point 15 min, 37°C; read-out: Microsomal Stability t1/2
Protocol: In vitro metabolic stability screening assay was conducted with rat liver microsomes in a 96-well plate, where 1 μM of compound was incubated with 0.5 mg/mL of rat liver microsomal protein. A single time point was collected at 15 min after an incubation at 37°C. […] When the half-life was greater than 30 min, results were presented as >30 min.

ALK2 = biological target: T1, ALK2 (Mus musculus, UniProt P37172); experiment: BMP6-stimulated SMAD1/5/8 phosphorylation in C2C12 cells (HTRF); assay type: cell-based; details: for IC50: C2C12 cells, SMAD1/5/8 phosphorylation, HTRF, read-out: BMP6 (mediated by ALK2) IC50
T1 construct: determined in C2C12 cell lines (ATCC; Manassas, VA, United States); host or cells: C2C12
T1 sequence (P37172 21-509): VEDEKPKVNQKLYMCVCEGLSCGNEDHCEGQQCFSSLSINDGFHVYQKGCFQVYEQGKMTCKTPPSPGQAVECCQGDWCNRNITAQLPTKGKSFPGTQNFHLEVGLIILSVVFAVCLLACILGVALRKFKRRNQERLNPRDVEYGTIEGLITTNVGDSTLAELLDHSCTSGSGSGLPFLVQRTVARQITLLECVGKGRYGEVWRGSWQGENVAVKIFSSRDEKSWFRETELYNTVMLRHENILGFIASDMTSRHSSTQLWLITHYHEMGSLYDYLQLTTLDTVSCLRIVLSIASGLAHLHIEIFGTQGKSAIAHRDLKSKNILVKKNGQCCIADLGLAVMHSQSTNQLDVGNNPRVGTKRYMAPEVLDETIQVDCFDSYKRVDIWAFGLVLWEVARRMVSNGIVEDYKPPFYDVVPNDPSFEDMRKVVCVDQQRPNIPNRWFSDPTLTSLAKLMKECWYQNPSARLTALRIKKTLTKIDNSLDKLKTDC
Protocol: (§1) The in vitro activity toward to ALK2 and the selectivity over ALK3 and ALK5 were determined in C2C12 cell lines (ATCC; Manassas, VA, United States) through measuring the phosphorylation level of SMAD1/5/8 (for ALK2 and ALK3) or SMAD2/3 (for ALK5) under the stimulation of BMP6 (mediated by ALK2), BMP4 (mediated by ALK3) and TGFβ (mediated by ALK5), respectively, by using homogeneous time resolved fluorescence (HTRF; a manuscript in preparation).

[2] = Kinetic solubility (μSOL Evolution, pH 7.4 phosphate buffer); assay type: physicochemical; details: pH 7.4, aqueous buffer, kinetic from dmso stock
Protocol: Kinetic solubility was measured using the μSOL Evolution system from pION Inc. (Billerica, MA, United States). Saturation shake-flask solubility method was adapted as previously described ([Avdeef and Berger, 2001]). Briefly, 10 mM DMSO stock was diluted to a final drug concentration of 150 μM in the aqueous solution (pH 7.4, 100 mM phosphate buffer) in duplicates. The solution was kept at room temperature for 6 h for equilibration. After equilibration, precipitates were removed using Tecan Te-Vac vacuum-filter and the compound concentration was measured by UV absorbance (λ: 250–498 nm). Data was compared to a fully solubilized reference solution of the test article at 17 μM in spectroscopically pure n-propanol. The kinetic solubility (μg/mL) was calculated using the μSOL Evolution software.

ALK5 = biological target: T2, ALK5 (Mus musculus, UniProt Q64729); experiment: TGFβ-stimulated SMAD2/3 phosphorylation in C2C12 cells (HTRF); assay type: cell-based
T2 construct: determined in C2C12 cell lines (ATCC; Manassas, VA, United States); host or cells: C2C12
T2 sequence (Q64729 30-503): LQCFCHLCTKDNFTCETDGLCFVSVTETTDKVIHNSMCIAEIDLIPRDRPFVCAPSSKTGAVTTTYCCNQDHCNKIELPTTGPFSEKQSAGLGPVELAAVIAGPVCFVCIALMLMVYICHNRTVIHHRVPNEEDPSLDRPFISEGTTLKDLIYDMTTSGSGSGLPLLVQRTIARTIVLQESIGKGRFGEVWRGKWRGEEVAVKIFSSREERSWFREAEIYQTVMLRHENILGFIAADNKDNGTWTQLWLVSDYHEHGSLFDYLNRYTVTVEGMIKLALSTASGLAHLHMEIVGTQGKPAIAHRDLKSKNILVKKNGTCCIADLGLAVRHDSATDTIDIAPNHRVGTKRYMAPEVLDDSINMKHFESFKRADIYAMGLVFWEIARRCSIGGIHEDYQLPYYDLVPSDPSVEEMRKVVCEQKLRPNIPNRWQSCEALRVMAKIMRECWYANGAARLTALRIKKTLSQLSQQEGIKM
Protocol: as §1

[3] = Metabolite profiling in human liver microsomes and cytosol (LC/UV/MS, inhibitors, trapping)
[4] = Stirring double-sink PAMPA permeability; assay type: in vitro ADME; details: passive diffusion
Protocol: Parallel Artificial Membrane Permeability Assay (PAMPA) was employed to determine the passive diffusion permeability of LDN-193189 and analogs. Stirring double-sink PAMPA method (pION Inc.) was employed to determine the permeability of compounds. The method was performed as described previously ([Sun et al., 2017]).

ALK3 = biological target: T3, ALK3 (Mus musculus, UniProt P36895); experiment: BMP4-stimulated SMAD1/5/8 phosphorylation in C2C12 cells (HTRF); assay type: cell-based; details: read-out: BMP4 (mediated by ALK3) IC50
T3 construct: determined in C2C12 cell lines (ATCC; Manassas, VA, United States); host or cells: C2C12
Protocol: as §1

[5] = Metabolite formation in human and mouse liver subcellular fractions (LC/UV/MS, trapping); assay type: in vitro ADME; details: for cyanide (KCN) adduct: KCN trapping; for metabolism in cytosol incubation (AO-mediated): liver cytosol; for GSH adduct: microsomal incubation with NADPH and GSH, mouse and human; for Species in which the metabolite of Compound 2 was observed / Species in which the metabolite of Compound 3 was observed: H human, M mouse
[6] = Metabolite profiling of LDN-193189 in liver microsomal/cytosolic fractions of six species (LC/UV/MS, GSH and KCN trapping); details: for Species in which the metabolite of LDN-193189 was observed: LDN-193189 10 μM, 60 min, M mouse, R rat, Rb rabbit, D dog, Mo monkey, H human; for metabolite found in rat microsomal incubation with LDN-193189: rat liver microsomes
Protocol: Total incubation volume per sample was 1 mL. The metabolic reactions were initiated by the addition of cofactors, NADPH-regenerating system and UDPGA, after a pre-incubation at 37°C for 5 min. The incubation mixtures were placed in a shaking water bath at 37°C for 60 min. At the end of the reaction, three volumes of ACN were added, followed by vortexing and centrifugation to remove proteins. The supernatants were transferred to clean tubes and dried completely under a stream of nitrogen at ambient temperature. The dried residues were reconstituted with 500 μL of 25% MeOH in water and transferred into HPLC vials for LC/UV/MS analysis.
Chromatography was accomplished on a Phenomenex Luna, C18 (2) column, 3.0 × 250 mm, 5 μm (Torrance, CA, United States). The column was kept at ambient temperature during sample analysis. The mobile phases were HPLC grade water (solvent A) and ACN (solvent B), both of which contained 0.1% trifluoroacetic acid (TFA). […] The first 4 min of the HPLC flow was diverted to waste prior to evaluation of metabolites.
To facilitate distinction of carbon or heteroatom oxidations, hydrogen/deuterium (H/D) exchange experiments were performed by replacing the aqueous mobile phase (H2O) with D2O while keeping the rest of assay conditions unchanged.
UV absorption spectra from 200 to 400 nm were recorded using a diode array detector. The Thermo Finnigan LTQ XL mass spectrometer was equipped with an electrospray ionization (ESI) interface and operated in positive ionization mode for metabolite profiling and identification. Mass spectra were acquired in full scan (MS) (m/z 200–1000) and data dependent scan (MS^2, MS^3, and MS^4) modes. The ESI spray voltage was +5kV with capillary temperature of 300°C. Sheath gas and auxiliary gas were 80 and 20 arbitrary units, respectively. Activation Q was 0.25 and Activation time 30 ms. The collision energy used to obtain fragments was set at 40 eV.

[7] = parameters: method as in Cuny et al., 2008; details: mice, intraperitoneal administration; ref Cuny et al., 2008; cited from earlier work
mouse FOP disease model = test system: mouse FOP disease model; parameters: method as in Yu et al., 2008a; details: ref Yu et al., 2008a; cited from earlier work
[8] = C2C12 cells, SMAD2/3 phosphorylation, HTRF, read-out: TGFβ (mediated by ALK5) IC50

T3 sequence (P36895 24-532): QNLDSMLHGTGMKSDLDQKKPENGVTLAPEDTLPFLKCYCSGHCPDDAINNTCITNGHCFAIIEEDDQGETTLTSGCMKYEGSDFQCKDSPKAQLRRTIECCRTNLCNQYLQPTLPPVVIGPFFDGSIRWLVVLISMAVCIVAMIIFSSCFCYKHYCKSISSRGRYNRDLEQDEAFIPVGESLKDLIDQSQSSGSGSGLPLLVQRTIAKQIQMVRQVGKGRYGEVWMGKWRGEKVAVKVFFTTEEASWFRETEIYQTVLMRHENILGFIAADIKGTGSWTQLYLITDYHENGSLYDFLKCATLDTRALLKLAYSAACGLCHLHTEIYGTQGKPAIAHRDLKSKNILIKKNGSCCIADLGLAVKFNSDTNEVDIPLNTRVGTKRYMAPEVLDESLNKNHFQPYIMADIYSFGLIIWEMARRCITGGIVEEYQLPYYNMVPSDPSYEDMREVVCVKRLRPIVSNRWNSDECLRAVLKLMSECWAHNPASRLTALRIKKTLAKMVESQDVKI

Cc1cc(-c2cnn3cc(-c4ccc(N5CCNCC5)cc4)cnc23)c2ccccc2n1 [Compound 1]
half-life at 1 μM [1]: > 30 min
IC50 (ALK2): 120 nM
solubility at 6 h [2]: 1 µg/mL (≈ 2.38 µM)
IC50 (ALK5): 987 nM
glucuronide conjugate ([3]; UDPGA-fortified human liver microsomes): No glucuronide conjugate was observed
metabolism in cytosol incubation (AO-mediated) ([3]; human liver cytosol): No metabolism was observed
extent of metabolism in human liver microsomes ([3]; human liver microsomes): metabolized moderately
GSH adduct in trapping experiments ([3]; human liver microsomes, GSH): no GSH or cyanide adduct was detected
cyanide adduct in trapping experiments ([3]; human liver microsomes, KCN): no GSH or cyanide adduct was detected
aniline derivatives ([3]; human microsomal fractions): No aniline derivatives were observed
Papp [4]: 437 ×10⁻⁶ cm/s

c1ccc2c(-c3cnn4cc(-c5ccc(OCCN6CCCCC6)nc5)cnc34)ccnc2c1 [Compound 2]
half-life at 1 μM [1]: 22 min
IC50 (ALK2): 227 nM
IC50 (ALK3): 3270 nM
solubility at 6 h [2]: < 1 µg/mL
IC50 (ALK5; [8]): 27400 nM
aniline formation [5]: not detected
cyanide (KCN) adduct [5]: not detected
metabolism in cytosol incubation (AO-mediated) [5]: An oxidative metabolite was observed
GSH adduct [5]: observed only in mouse microsomal incubation
Papp [4]: 7 ×10⁻⁶ cm/s

Cc1cc(-c2cnn3cc(-c4ccc(OCCN5CCCCC5)nc4)cnc23)c2ccccc2n1 [Compound 3]
half-life at 1 μM [1]: > 30 min
IC50 (ALK2): 466 nM
potency against ALK2 mediated signaling compared to LDN-193189 (ALK2; relative to LDN-193189): threefold less potent
IC50 (ALK3): 4340 nM
solubility at 6 h [2]: 36.2 µg/mL (≈ 77.9 µM)
IC50 (ALK5; [8]): 2660 nM
aniline formation [5]: Neither aniline formation nor cytosolic metabolism were observed
cyanide (KCN) adduct [5]: No cyanide adduct or glucuronide conjugate was observed
glucuronide conjugate ([5]; UDPGA): No cyanide adduct or glucuronide conjugate was observed
metabolism in cytosol incubation (AO-mediated) [5]: No metabolite formation was observed
GSH adduct [5]: observed only in mouse microsomal incubation
Papp [4]: 1070 ×10⁻⁶ cm/s

Nc1ccc(-c2cnc3c(-c4ccnc5ccccc45)cnn3c2)cc1 [Compound M337]
Species in which the metabolite of LDN-193189 was observed [6]: M, Rb, D, Mo, H
metabolite found in rat microsomal incubation with LDN-193189 [6]: not found

NCCNc1ccc(-c2cnc3c(-c4ccnc5ccccc45)cnn3c2)cc1 [Compound M380]
metabolite found in rat microsomal incubation with LDN-193189 [6]: not found

OCCNc1ccc(-c2cnc3c(-c4ccnc5ccccc45)cnn3c2)cc1 [Compound M381]
Species in which the metabolite of LDN-193189 was observed [6]: Rb, D, Mo, H

O=C(O)CNc1ccc(-c2cnc3c(-c4ccnc5ccccc45)cnn3c2)cc1 [Compound M395]
Species in which the metabolite of LDN-193189 was observed [6]: Rb, D, Mo, H

Cc1cc(-c2cnn3cc(-c4ccc(OCCO)nc4)cnc23)c2ccccc2n1 [Compound M397]
Species in which the metabolite of Compound 2 was observed [5]: H, M
Species in which the metabolite of Compound 3 was observed [5]: H, M

Cc1cc(-c2cnn3cc(-c4ccc(OCC(=O)O)nc4)cnc23)c2ccccc2n1 [Compound M411]
Species in which the metabolite of Compound 3 was observed [5]: H, M

O=C1CN(c2ccc(-c3cnc4c(-c5ccnc6ccccc56)cnn4c3)cc2)CCN1 [Compound M420]
Species in which the metabolite of LDN-193189 was observed [6]: M, R, Rb, D, Mo, H

Oc1cc(-c2cnn3cc(-c4ccc(N5CCNCC5)cc4)cnc23)c2ccccc2n1 [Compound M422c]
Species in which the metabolite of LDN-193189 was observed [6]: all species except dog

N#CC1CNCCN1c1ccc(-c2cnc3c(-c4ccnc5ccccc45)cnn3c2)cc1 (stereo not shown) [Compound M431]
Species in which the metabolite of LDN-193189 was observed [6]: M, R, Rb, D, Mo, H

NCCN(CC(=O)O)c1ccc(-c2cnc3c(-c4ccnc5ccccc45)cnn3c2)cc1 [Compound M438]
Species in which the metabolite of LDN-193189 was observed [6]: M, R, Rb, D, Mo, H

N#CC1CNC(=O)CN1c1ccc(-c2cnc3c(-c4ccnc5ccccc45)cnn3c2)cc1 (stereo not shown) [Compound M445]
Species in which the metabolite of LDN-193189 was observed [6]: M, R, Rb, D, Mo, H

O=c1cc(-c2cnn3cc(-c4ccc(OCCN5CCCCC5)nc4)cnc23)c2ccccc2[nH]1 [Compound M466d]
Species in which the metabolite of Compound 2 was observed [5]: H, M

c1ccc2c(-c3cnn4cc(-c5ccc(N6CCNCC6)cc5)cnc34)ccnc2c1 [LDN-193189, reference compound]
half-life at 1 μM [1]: > 30 min
plasma t1/2 [7]: 96 min
efficacy in an animal model of FOP (mouse FOP disease model): efficacious
glucuronide conjugates ([6]; UDPGA 2 mM): no glucuronide conjugates observed
GSH trapping of reactive metabolites ([6]; liver microsomes from any species, GSH 2 mM): no “soft electrophiles” were produced
rank ordering of the metabolic conversion in liver microsomes ([6]; liver microsomes, no cytosol added): dog > rabbit > mouse > human ∼ monkey > rat
extent of metabolic conversion to M422c, order of species ([6]; liver preparations with cytosol): monkey > rabbit > human > mouse > rat with no conversion observed in dog liver preparations
IC50 (ALK3): 585 nM
solubility at 6 h [2]: 1.1 µg/mL (≈ 2.71 µM)
formation of M422c on addition of XO inhibitor allopurinol ([3]; human liver cytosol, allopurinol 0.1 mM): did not result in a change
formation of M422c in the presence of AO inhibitor menadione ([3]; human liver cytosol, menadione 1 mM): reduced
Papp [4]: 320 ×10⁻⁶ cm/s

CN1CCC[C@H]1c1cccnc1 [Nicotine, reference compound]
cyanide adducts in KCN trapping ([6]; liver microsomes, KCN 0.1 mM): produced the expected cyanide derivatives

C[C@]12CC[C@H]3[C@@H](CCC4=CC(=O)CC[C@@]43C)[C@@H]1CC[C@@H]2O [testosterone, reference compound]
metabolite formation of positive control ([3]; human liver microsomes, 100 μM, 20 min): showed the expected metabolite formation
